Source: patent US20260098008A1, “COVALENT, CHEMOGENETIC ACTIVATORS FOR K2P POTASSIUM CHANNELS AND USES THEREOF” (THE REGENTS OF THE UNIVERSITY OF CALIFORNIA, priority 2022, published 2026)
Changes are numbered by the printed parent chain.

Tests used:
A286F TREK-1^CG* = target: T1, A286F TREK-1^CG* (Mus musculus, UniProt P97438, A301F/S146C); experiment: Resting membrane potential, current-clamp (I=0) in HEK293 cells; format: cell-based; details: 20 μM CAT335
T1 construct: expressed in transfected cells; host or cells: Xenopus laevis oocytes injected with mRNA
T1 sequence (P97438 1-411 isoform P97438-2 S131C/A286F): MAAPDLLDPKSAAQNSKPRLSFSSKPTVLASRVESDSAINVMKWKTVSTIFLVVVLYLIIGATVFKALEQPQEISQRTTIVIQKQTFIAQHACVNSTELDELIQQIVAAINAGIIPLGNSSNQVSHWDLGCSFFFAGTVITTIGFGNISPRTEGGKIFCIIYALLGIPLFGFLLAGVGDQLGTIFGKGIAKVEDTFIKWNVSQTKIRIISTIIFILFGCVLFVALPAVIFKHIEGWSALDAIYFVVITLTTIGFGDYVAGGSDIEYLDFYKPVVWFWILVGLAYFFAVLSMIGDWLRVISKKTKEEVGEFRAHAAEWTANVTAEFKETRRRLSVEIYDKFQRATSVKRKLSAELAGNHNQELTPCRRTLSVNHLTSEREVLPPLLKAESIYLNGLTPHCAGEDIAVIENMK
Excerpt: (§1) Mouse K2P2.1 (TREK-1) (Genbank accession number: NP_034737.2), mouse K2P10.1 (TREK-2) (NM_001316665.1), mouse K2P4.1 (TRAAK) (NM_008431.3), human K2P4.1 (TRAAK) (NM_033310.2) and mouse K2P18.1(TRESK) (NM_207261.3) were used for this study. Point mutations were introduced by site-directed mutagenesis using custom primers and confirmed by sequencing before use. For studies using Xenopus oocytes, K2P channels were subcloned into a previously reported pGEMHE/pMO vector (46). For expression in HEK293 cells, mouse K2P2.1 (TREK-1) and mutants were expressed from a previously described pIRES2-EGFP vector in HEK293 cells (46,47). K2P2.1 (TREK-1) tandems were constructed by connecting the open reading frames for the individual subunits with a linker encoding the […] (SEQ ID NO: 19) sequence. Tandems used for HEK293 cells included an N-terminal HA tag ([…] (SEQ ID NO: 20)) on the first subunit.
(§2) 50% confluent cells were co-transfected (in 35-mm diameter wells) with 10-100 ng of the K2P2.1 plasmid and 400 ng of an eGFP plasmid (for visualization) using LipofectAMINE 2000 (Invitrogen) for 24 h, after which the cells were either plated onto coverslips or the media exchanged with fresh media. […]
(§3) Whole-cell patch-clamp experiments with K2P2.1(TREK-1) and mutants were carried out 24-48 h after transfection. […] Data were analyzed using Clampfit 11 and GraphPad Prism 9.

TREK-1^CG* = target: T2, TREK-1^CG* (Mus musculus, UniProt P97438, S146C); experiment: as above; format: cell-based; details: 20 μM CAT335
T2 construct: expressed in transfected cells; host or cells: HEK293 (pIRES2-EGFP vector)
T2 sequence (P97438 1-411 isoform P97438-2 S131C): T1 sequence (P97438 1-411 isoform P97438-2 S131C/A286F) with F286A
Excerpt: as §1, §2, §3

[1] = test system: HEK293 cells (no exogenous K2P expression); experiment: Resting membrane potential, current-clamp (I=0) in control HEK293 cells; format: cell-based; details: 20 μM CAT335
Protocol: 50% confluent cells were co-transfected (in 35-mm diameter wells) with 10-100 ng of the K2P2.1 plasmid and 400 ng of an eGFP plasmid (for visualization) using LipofectAMINE 2000 (Invitrogen) for 24 h, after which the cells were either plated onto coverslips or the media exchanged with fresh media. Cells were plated onto Matrigel coated coverslips (BD Biosciences) 1-2 hours before experiments.
Whole-cell patch-clamp experiments with K2P2.1(TREK-1) and mutants were carried out 24-48 h after transfection. Acquisition and analysis for voltage-clamp experiments were performed using pCLAMP10 and an Axopatch 200B amplifier (Molecular Devices). Current-clamp experiments were acquired using an […] amplifier (Molecular Devices). Pipettes were pulled using a Flaming/Brown micropipette puller (P-97, Sutter Instruments) and flame-polished using a MF-830 microforge (Narishige). Electrode resistance after filling with pipette internal solution ranged from 2 to 5 MΩ. Currents were low-pass filtered at 2 kHz and sampled at 10 kHz. Pipette solution contained the following: 145 mM KCl, 3 mM MgCl2, 5 mM EGTA and 20 mM HEPES (pH 7.2 with KOH). Bath solution contained the following: 145 mM NaCl, 5 mM KCl, 1 mM CaCl2, 3 mM MgCl2 and 20 mM HEPES (pH 7.4 with NaOH). […] Data were analyzed using Clampfit 11 and GraphPad Prism 9.

[2] = Solubility in aqueous solutions (crystallization sample preparation); format: physicochemical
Protocol: K2P2.1cryst ML335 and ML402 complex crystals grew in the same conditions as K2P2.1cyst, but the protein was incubated for at least 1 h with 2.5 mM of activator before setting the crystal plates. […] Then each compound was diluted 1:100 in SEC buffer to 5 mM concentration, giving a milky solution. This solution was mixed 1:1 to K2P2.1cryst previously concentrated to 12 mg ml^−1. […] The samples were briefly centrifuged in a table-top centrifuge (10,000 g) to remove any insoluble material before setting the crystal plates.

K2P4.1 (TRAAK) = target: T3, K2P4.1 (TRAAK) (Homo sapiens, UniProt Q9NYG8); details: previous studies; cited from earlier work
T3 sequence (Q9NYG8 1-393): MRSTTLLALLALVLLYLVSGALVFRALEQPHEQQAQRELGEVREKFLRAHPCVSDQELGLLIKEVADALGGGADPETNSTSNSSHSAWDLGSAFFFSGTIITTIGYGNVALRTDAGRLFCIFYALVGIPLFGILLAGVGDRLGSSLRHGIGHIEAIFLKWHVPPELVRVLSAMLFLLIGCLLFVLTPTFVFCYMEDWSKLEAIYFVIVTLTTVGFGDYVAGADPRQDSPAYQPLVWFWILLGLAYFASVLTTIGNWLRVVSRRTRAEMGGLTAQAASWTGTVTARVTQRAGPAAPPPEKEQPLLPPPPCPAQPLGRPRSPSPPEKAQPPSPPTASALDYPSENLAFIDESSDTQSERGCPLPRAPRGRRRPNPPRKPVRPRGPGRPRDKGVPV

## O=C(NCc1ccc(Cl)cc1Cl)c1ccc(N2C(=O)C=CC2=O)cc1 [CAT335]
A286F TREK-1^CG*
  Change of resting membrane potential (ΔRMP): −27 mV
TREK-1^CG*
  Change of resting membrane potential (ΔRMP): −6 mV
[1]
  Change of resting membrane potential (ΔRMP): +7 mV

## CS(=O)(=O)Nc1ccc(C(=O)NCc2ccc(Cl)cc2Cl)cc1 [ML335, reference compound]
[2]
  Solubility in aqueous solutions: insoluble in aqueous solutions
K2P4.1 (TRAAK)
  Sensitivity of channel to activator: insensitive
